Activity calls are given as the source filed them. No cut-off for these calls is given here.
Columns and labels:
[1] = tested on: Rattus norvegicus; test: Antinociceptive effect in rat chronic constriction injury model of neuropathic pain assessed as reduction of CCI-induced thermal hyperalgesia at 10 mg/kg/day, po after 11 to 18 days relative to vehicle-treated control; format: functional, organism-based
[2] = Prodrug conversion in simulated gastric fluid at pH 1.2 after 48 hrs by HPLC analysis; format: ADME; details: simulated gi fluid, pH 1.2, 48 h
[3] = tested on: Plasma; test: Prodrug conversion in rat plasma assessed as 2-MPPA formation at 10 mg/kg, po after 0.25 to 3 hrs; format: ADME, organism-based; parameters: dose 10 mg/kg, route oral; details: in vivo
[4] = biological target: Glutamate carboxypeptidase 2 (Homo sapiens, UniProt Q04609); test: Inhibition of human recombinant GCP2 using N-acetyl-L-aspartyl[3H]-L-glutamate as substrate
Sequence of Glutamate carboxypeptidase 2 (Q04609 whole entry): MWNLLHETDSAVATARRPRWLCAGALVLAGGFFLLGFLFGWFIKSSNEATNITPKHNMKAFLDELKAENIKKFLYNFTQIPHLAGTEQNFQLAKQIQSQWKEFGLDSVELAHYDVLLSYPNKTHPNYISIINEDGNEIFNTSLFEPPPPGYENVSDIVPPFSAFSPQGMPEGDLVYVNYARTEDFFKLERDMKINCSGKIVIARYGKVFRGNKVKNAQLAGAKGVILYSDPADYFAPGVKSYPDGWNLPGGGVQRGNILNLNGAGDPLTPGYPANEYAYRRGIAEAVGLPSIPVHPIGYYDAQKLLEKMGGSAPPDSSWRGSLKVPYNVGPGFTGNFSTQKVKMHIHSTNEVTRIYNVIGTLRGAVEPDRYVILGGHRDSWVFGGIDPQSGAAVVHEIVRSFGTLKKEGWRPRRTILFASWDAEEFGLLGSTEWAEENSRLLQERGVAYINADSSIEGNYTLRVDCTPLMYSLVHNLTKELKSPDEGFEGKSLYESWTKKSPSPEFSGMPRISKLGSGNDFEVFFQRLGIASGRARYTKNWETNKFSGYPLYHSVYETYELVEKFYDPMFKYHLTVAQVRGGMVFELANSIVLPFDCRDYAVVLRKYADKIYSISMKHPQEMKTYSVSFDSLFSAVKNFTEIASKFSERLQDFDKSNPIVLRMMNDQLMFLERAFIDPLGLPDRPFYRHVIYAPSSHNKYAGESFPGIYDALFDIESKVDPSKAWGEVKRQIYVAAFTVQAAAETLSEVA

[5] = tested on: Liver microsome; test: Prodrug conversion in rat liver microsomes at 10 uM after 1.5 hrs by LC/MS/MS analysis; format: ADME
[6] = tested on: Liver microsome; test: Prodrug conversion in rat liver microsomes assessed as 2-MPPA formation at 10 uM by LC/MS/MS analysis; format: ADME; details: TDE = time-dependent effect

**Q.** For `O=C(O)CCC1CCCSC1=O` (racemic), which Activity [1] is on record?
**A.** Active

**Q.** And the Stability [2]?
**A.** Stable

**Q.** And the Drug metabolism [3]?
**A.** Active

**Q.** And the IC50 [4]?
**A.** 2 µM

**Q.** With `O=C(O)c1cccc(-c2cccc3c2C(=O)SCC3)c1` as the compound, how does the Stability [2] read?
**A.** Stable

**Q.** And the Stability [5]?
**A.** Stable

**Q.** And the IC50 [4]?
**A.** 20 µM

**Q.** For `O=C(O)CCC(CCCS)C(=O)O` (stereo not drawn), which Activity [6] is on record?
**A.** tde

From ChEMBL document CHEMBL3112468, “δ-Thiolactones as prodrugs of thiol-based glutamate carboxypeptidase II (GCPII) inhibitors” (J Med Chem, 2014)
